From ChEMBL document CHEMBL5724709, “EUbOPEN Chemogenomics Library - IncuCyte” (2024)
Peptide text beside a SMILES is read from it. * marks the point of attachment. Boc = CC(C)(C)OC(=O)*

How the values were obtained:
Assay type in all cases: toxicity, cell-based
U2OS = experiment: Incucyte cell viability with U2OS; details: human, 24 h, 10 µM, compound concentration 10 uM
HEK-293T = experiment: Incucyte cell viability with HEK293T; details: human, 24 h, 10 µM, compound concentration 10 uM
Fibroblast = experiment: Incucyte cell viability with human fibroblast; details: 24 h, 10 µM, compound concentration 10 uM
Note: unitless GR value; below 1 slowed growth and below 0 cell loss.

| SMILES | Growth Rate (U2OS; replicate number 1) | Growth Rate (U2OS; replicate number 2) | Growth Rate (HEK-293T; replicate number 1) | Growth Rate (HEK-293T; replicate number 2) | Growth Rate (Fibroblast; replicate number 1) | Growth Rate (Fibroblast; replicate number 2) |
| --- | --- | --- | --- | --- | --- | --- |
| CCN(c1cc(C#CCN2CCOCC2)cc(C(=O)NCc2c(C)cc(C)[nH]c2=O)c1C)[C@H]1CC[C@H](N(C)CCOC)CC1 | 1 | 0.81 | 0.57 | 0.74 | 1 |  |
| CCS(=O)(=O)N1CC(CC#N)(n2cc(-c3ncnc4[nH]ccc34)cn2)C1 [BARICITINIB] | 1 | 0.77 | 0.96 | 1 | 0.11 | 0.42 |
| C/C=C1\NC(=O)[C@H]2CSSCC/C=C/[C@H](CC(=O)N[C@H](C(C)C)C(=O)N2)OC(=O)[C@H](C(C)C)NC1=O [ROMIDEPSIN] | 1 | 0.29 | 0.73 |  | 0.96 | -0.41 |
| CNC(=O)O[C@H]1COc2ccc(N3CCN(C4COC4)CC3)cc2[C@@H]1NC(=O)c1ccc(F)cc1 | 1 |  | 0.89 | 0.97 | 1 | 0.67 |
| COc1cc(-c2cn(C)c(=O)c3cnccc23)cc(OC)c1CN(C)CC(=O)NCCOCCOCCNc1cccc2c1C(=O)N(C1CCC(=O)NC1=O)C2=O (centres undefined) | 0.78 | 0.96 | 0.8 | 0.98 | 0.26 | 0.72 |
| O=C(NO)C(c1ccc(-c2ncc(C(F)(F)F)cn2)cc1)c1ccccc1F (centres undefined) | 0.6 | 0.81 | -0.14 | 0.69 | 0.37 | -0.57 |
| CC(=O)N[C@@H](Cc1ccc(O)cc1)C(=O)N[C@H](C(=O)N[C@@H](C)C(=O)N[C@@H](CC(=O)O)C(=O)CCl)C(C)C | 1 |  | 0.82 | 0.89 | 0.42 | 1 |
| CC(=O)N1CCc2c(c(N3CCCc4cc(-c5cnn(C)c5)c(C(F)F)cc43)nn2C2CCOCC2)C1 | 1 | 0.89 | 0.61 | 0.51 | 0.79 | 1 |
| CCN(CCN(C)C)C(=O)CNCc1cc(C(N)=O)ccn1.Cl.O | 0.89 | 0.8 | 0.74 | 0.94 | 0.65 | 0.4 |
| COC[C@@H]1CCCN1S(=O)(=O)c1ccc2c(c1)C(=O)C(=O)N2 | 1 |  | 0.88 | 1 | 0.45 | 0.8 |
| O=C(COc1ccc(-c2oc3cc(O)c(C(=O)O)cc3c2C#Cc2cccc(Cl)c2)cc1)NC1CC1 | 0.39 | 0.84 | 0.87 | 0.84 | 0.84 | -0.06 |
| CC(=O)N1CCC(Nc2cc(C(=O)NC[C@H](O)CN3CCc4ccccc4C3)ncn2)CC1 [PEMRAMETOSTAT] | 0.26 | 1 | 0.9 | 1 | 1 |  |
| CC(=O)N[C@@H](CC(C)C)C(=O)N[C@@H](CCC(=O)O)C(=O)N[C@@H](Cc1cnc[nH]1)C(=O)N[C@H](C=O)CC(=O)O.O=C(O)C(F)(F)F (Ac-LEHD-aldehyde) | 1 | 0.89 | 0.81 | 0.98 | 1 | 0.49 |
| C[C@H](Nc1cc(Cl)nc2c1cnn2[C@@H]1O[C@H](COP(=O)(O)CP(=O)(O)O)[C@@H](O)[C@H]1O)c1ccccc1F | 1 |  | 0.88 | 1 | 0.88 | 1 |
| CC1=NN(c2ccc(C(=O)O)cc2)C(=O)/C1=C/c1ccc(-c2cc(C)c(C)cc2[N+](=O)[O-])o1 | 0.18 | 1 | 0.84 | 1 | 1 |  |
| CSCC[C@H](NC(=O)[C@H](CC(=O)O)NC(C)=O)C(=O)N[C@@H](CCC(N)=O)C(=O)N[C@H](C=O)CC(=O)O.O=C(O)C(F)(F)F (Ac-DMQD-aldehyde) | 1 |  | 1 | 0.97 | 0.25 | 1 |
| NC(=O)c1cccc(NC(=O)CCC(=O)NCCc2cn(CCNS(=O)(=O)c3cccc(C(=O)O)c3)nn2)c1 | 0.49 | 1 | 0.69 | 0.77 | 0.46 | 1 |
| CC(C)c1cnc(CSc2cnc(NC(=O)C3CCNCC3)s2)o1 | -0.6 | -0.31 | -0.28 | -0.09 | -0.05 | -0.46 |
| CC(C)[C@H](NC(=O)[C@H](CCC(=O)O)NC(=O)[C@H](C)NC(=O)OC(C)(C)C)C(=O)N[C@H](C=O)CC(=O)O.O=C(O)C(F)(F)F (Boc-AEVD-aldehyde) | 1 |  | 0.66 | 0.93 | 0.24 | 1 |
| CCc1ccccc1NC(=O)CSC(=O)NNC(=O)[C@H](Cc1c[nH]c2ccccc12)NC(=O)OC(C)(C)C | 1 |  | 0.24 | 0.54 | 1 |  |
| CCC[C@H]1CNCc2c1[nH]c(=O)c(C#N)c2N1CCC2(CC1)CC2.Cl | 0.97 | 1 | 0.75 | 0.9 | -0.11 | 0.09 |
